Measured values reported in ChEMBL document CHEMBL4421722, “Inhibitors of protein prenyltransferases” (2013).

System: not listed separately
Assay: Inhibition of rat recombinant geranylgeranyltransferase type I expressed in Escherichia coli assessed as reduction in geranylgeranylation of K-Ras4B incubated for 30 mins in presence of [3H]GGPP by scintillation counting assay
Conditions: not given

Row | IC50 | Structure (SMILES)
1 | 15 µM | CC(C)(C)[C@@H]1C=C(C(=O)O)[C@H](c2ccccc2)N1S(C)(=O)=O
2 | 0.6 µM | COC(=O)[C@H](CC(C)C)NC(=O)c1ccc(NCc2cnc[nH]2)cc1-c1ccccc1C
3 | 20 µM | Cc1ccc(S(=O)(=O)N2[C@H](C)C=C(C(=O)O)[C@@H]2c2cccc(Cl)c2)cc1
4 | 38 µM | Cc1ccc(S(=O)(=O)N2[C@H](C)C=C(C(=O)O)[C@@H]2c2ccc(Cl)c(Cl)c2)cc1
5 | 65 µM | CCCCC[C@@H]1[C@@H](Sc2ccc(C)cc2)[C@H](C(=O)O)[C@H](c2ccc(C)cc2)N1S(=O)(=O)c1ccc(C)cc1
6 | 45 µM | CC(C)(C)[C@@H]1C=C(C(=O)O)[C@H](c2ccc(Cl)cc2)N1S(C)(=O)=O
7 | 80 µM | Cc1ccc(S(=O)(=O)N2[C@@H](c3ccccc3)C(C(=O)O)=CC[C@H]2c2ccc(F)cc2)cc1
8 | 250 µM | CC[C@@H]1C=C(C(=O)O)[C@H](c2ccc(F)cc2)N1S(=O)(=O)c1ccc(C)cc1

System: not listed separately
Assay: Inhibition of rat recombinant geranylgeranyltransferase type I expressed in Escherichia coli assessed as reduction in geranylgeranylation of RhoA incubated for 30 mins in presence of [3H]GGPP by scintillation counting assay relative to control
Conditions: not given

Row | IC50 | Structure (SMILES)
9 | 23 µM | CC(C)(C)[C@@H]1C=C(C(=O)O)[C@H](c2ccccc2)N1S(C)(=O)=O
10 | 0.5 µM | COC(=O)[C@H](CC(C)C)NC(=O)c1ccc(NCc2cnc[nH]2)cc1-c1ccccc1C
11 | 1.3 to 20 µM | NC(=O)[C@H](Cc1ccccc1)NC(=O)C1=CC[C@@H](c2cccc(Cl)c2)N(S(=O)(=O)c2ccc(Br)cc2)[C@H]1c1cccc(Cl)c1
12 | 6.9 to 32.9 µM | CC(C)C[C@H](NC(=O)C1=CC[C@@H](c2cccc(Br)c2)N(S(=O)(=O)c2ccc(F)cc2)[C@H]1c1cccc(Cl)c1)C(N)=O
13 | > 50 µM | CC(C)(C)[C@@H]1C=C(C(=O)N[C@@H](Cc2ccccc2)C(N)=O)[C@H](c2ccc(Cl)c(Cl)c2)N1S(=O)(=O)c1c(Cl)cccc1Cl
14 | 2.7 to 50 µM | CC(C)(C)[C@@H]1C=C(C(=O)N[C@@H](Cc2ccccc2)C(N)=O)[C@H](c2ccc(Cl)c(Cl)c2)N1S(=O)(=O)C(C)(C)C
15 | 2.1 to 20 µM | COC(=O)[C@H](Cc1ccccc1)NC(=O)COCC1=C[C@@H](C(C)(C)C)N(S(=O)(=O)c2ccccc2C)[C@H]1c1ccc(Cl)cc1
16 | 30 µM | Cc1ccc(S(=O)(=O)N2[C@H](C)C=C(C(=O)O)[C@@H]2c2cccc(Cl)c2)cc1
17 | 45 µM | Cc1ccc(S(=O)(=O)N2[C@H](C)C=C(C(=O)O)[C@@H]2c2ccc(Cl)c(Cl)c2)cc1
18 | > 100 µM | Cc1ccccc1S(=O)(=O)N1[C@@H](c2cccc(Cl)c2)C(CO)=CC[C@H]1c1ccc(Cl)cc1
19 | 20 to 50 µM | COC(=O)[C@H](CC(C)C)NC(=O)C1=CC[C@@H](c2ccc(Cl)cc2)N(S(=O)(=O)c2ccccc2C)[C@H]1c1cccc(Cl)c1
20 | 100 µM | CCCCC[C@@H]1[C@@H](Sc2ccc(C)cc2)[C@H](C(=O)O)[C@H](c2ccc(C)cc2)N1S(=O)(=O)c1ccc(C)cc1
21 | > 50 µM | CC(C)(C)[C@@H]1C=C(C(=O)O)[C@H](c2ccc(Cl)cc2)N1S(C)(=O)=O
22 | > 20 µM | Cc1ccccc1S(=O)(=O)N1[C@@H](c2cccc(Cl)c2)C(C(N)=O)=CC[C@H]1c1ccc(Cl)cc1
23 | 120 µM | Cc1ccc(S(=O)(=O)N2[C@@H](c3ccccc3)C(C(=O)O)=CC[C@H]2c2ccc(F)cc2)cc1
24 | > 50 µM | COC(=O)[C@H](Cc1ccccc1)NC(=O)C1=C[C@@H](C(C)(C)C)N(S(=O)(=O)c2ccccc2C)[C@H]1c1ccc(Cl)cc1
25 | 200 µM | CC[C@@H]1C=C(C(=O)O)[C@H](c2ccc(F)cc2)N1S(=O)(=O)c1ccc(C)cc1
26 | > 50 µM | CC(C)C[C@H](NC(=O)C1=CC[C@@H](c2cccc(Cl)c2)N(S(=O)(=O)c2ccc(Br)cc2)[C@H]1c1cccc(Br)c1)C(N)=O
27 | 0.529 µM | O=C(O)C1=CC[C@@H](c2cccc(Br)c2)N(S(=O)(=O)c2ccc(Br)cc2)[C@H]1c1cccc(Cl)c1
28 | 0.31 µM | O=C(O)C1=CC[C@@H](c2ccc(Cl)c(Cl)c2)N(S(=O)(=O)c2ccc(Cl)cc2)[C@H]1c1cccc(Cl)c1
29 | 0.398 µM | O=C(O)C1=CC[C@@H](c2ccc(Br)cc2)N(S(=O)(=O)c2ccc(Br)cc2)[C@H]1c1cccc(Cl)c1
30 | 0.33 µM | Cc1cccc([C@@H]2CC=C(C(=O)O)[C@H](c3cccc(Br)c3)N2S(=O)(=O)c2ccc(Br)cc2)c1
31 | > 20 µM | CC(C)(C)[C@@H]1C=C(C(=O)N[C@@H](Cc2ccccc2)C(N)=O)[C@H](c2ccc(Cl)c(Cl)c2)N1S(=O)(=O)c1ccccc1Br

System: K562
Assay: Antiproliferative activity against human K562 cells assessed as inhibition of cell proliferation incubated for 72 hrs by CCK8 assay
Assay type: functional, cell-based
Conditions: K562, 72 h

Row | IC50 | GI50 | Structure (SMILES)
32 | 11 µM | – | Cc1ccccc1S(=O)(=O)N1[C@@H](c2ccc(Cl)cc2)C(C(N)=O)=C[C@H]1C(C)(C)C
33 | – | 7.69 to 10.3 µM | NC(=O)[C@H](Cc1ccccc1)NC(=O)C1=CC[C@@H](c2cccc(Cl)c2)N(S(=O)(=O)c2ccc(Br)cc2)[C@H]1c1cccc(Cl)c1
34 | – | 1.7 to 10.2 µM | CC(C)C[C@H](NC(=O)C1=CC[C@@H](c2cccc(Br)c2)N(S(=O)(=O)c2ccc(F)cc2)[C@H]1c1cccc(Cl)c1)C(N)=O
35 | – | 4.22 to 5.9 µM | CC(C)(C)[C@@H]1C=C(C(=O)N[C@@H](Cc2ccccc2)C(N)=O)[C@H](c2ccc(Cl)c(Cl)c2)N1S(=O)(=O)C(C)(C)C
36 | 5.8 to 6.01 µM | – | COC(=O)[C@H](Cc1ccccc1)NC(=O)COCC1=C[C@@H](C(C)(C)C)N(S(=O)(=O)c2ccccc2C)[C@H]1c1ccc(Cl)cc1
37 | – | 5.8 µM | Cc1ccccc1S(=O)(=O)N1[C@@H](c2cccc(Cl)c2)C(CO)=CC[C@H]1c1ccc(Cl)cc1
38 | 10.5 µM | 14 to 17 µM | COC(=O)[C@H](Cc1ccccc1)NC(=O)C1=C[C@@H](C(C)(C)C)N(S(=O)(=O)c2ccccc2C)[C@H]1c1ccc(Cl)cc1
39 | – | 4.37 to 12.9 µM | CC(C)C[C@H](NC(=O)C1=CC[C@@H](c2cccc(Cl)c2)N(S(=O)(=O)c2ccc(Br)cc2)[C@H]1c1cccc(Br)c1)C(N)=O
40 | > 25 µM | – | CCOC(=O)C1=C[C@@H](C(C)(C)C)N(S(=O)(=O)c2ccccc2C)[C@H]1c1ccc(Cl)cc1

System: Jurkat
Assay: Antiproliferative activity against human Jurkat cells assessed as inhibition of cell proliferation incubated for 72 hrs by CCK8 assay
Assay type: functional, cell-based
Conditions: not given

Row | GI50 | Structure (SMILES)
41 | 3.57 to 4.86 µM | NC(=O)[C@H](Cc1ccccc1)NC(=O)C1=CC[C@@H](c2cccc(Cl)c2)N(S(=O)(=O)c2ccc(Br)cc2)[C@H]1c1cccc(Cl)c1
42 | 0.32 to 1.76 µM | CC(C)C[C@H](NC(=O)C1=CC[C@@H](c2cccc(Br)c2)N(S(=O)(=O)c2ccc(F)cc2)[C@H]1c1cccc(Cl)c1)C(N)=O
43 | 4.91 to 5.28 µM | CC(C)(C)[C@@H]1C=C(C(=O)N[C@@H](Cc2ccccc2)C(N)=O)[C@H](c2ccc(Cl)c(Cl)c2)N1S(=O)(=O)c1c(Cl)cccc1Cl
44 | 4.57 to 5.91 µM | CC(C)(C)[C@@H]1C=C(C(=O)N[C@@H](Cc2ccccc2)C(N)=O)[C@H](c2ccc(Cl)c(Cl)c2)N1S(=O)(=O)C(C)(C)C
45 | 3.51 to 5.1 µM | COC(=O)[C@H](Cc1ccccc1)NC(=O)COCC1=C[C@@H](C(C)(C)C)N(S(=O)(=O)c2ccccc2C)[C@H]1c1ccc(Cl)cc1
46 | 7.5 µM | Cc1ccccc1S(=O)(=O)N1[C@@H](c2cccc(Cl)c2)C(CO)=CC[C@H]1c1ccc(Cl)cc1
47 | 3.53 to 6.1 µM | COC(=O)[C@H](CC(C)C)NC(=O)C1=CC[C@@H](c2ccc(Cl)cc2)N(S(=O)(=O)c2ccccc2C)[C@H]1c1cccc(Cl)c1
48 | 5.36 µM | Cc1ccccc1S(=O)(=O)N1[C@@H](c2cccc(Cl)c2)C(C(N)=O)=CC[C@H]1c1ccc(Cl)cc1
49 | 10.5 to 19 µM | COC(=O)[C@H](Cc1ccccc1)NC(=O)C1=C[C@@H](C(C)(C)C)N(S(=O)(=O)c2ccccc2C)[C@H]1c1ccc(Cl)cc1
50 | 2.22 to 6.38 µM | CC(C)C[C@H](NC(=O)C1=CC[C@@H](c2cccc(Cl)c2)N(S(=O)(=O)c2ccc(Br)cc2)[C@H]1c1cccc(Br)c1)C(N)=O
